Two molecules from US11267826B2, “Penicillin-binding protein inhibitors” (priority 2017, dated 2022) can be followed below.

Assay [1] has as its system E. coli DH5a harboring TEM-24. The assay is described as follows: Broth microdilution MIC, engineered E. coli expressing TEM-24. It is filed as cell-based. The following applies: Escherichia coli, read-out: MIC, β-lactamase TEM. As to the method:
(§1) To determine the ability of test compounds to potentiate the inhibition of the growth of bacterial strains, classic cell based broth microdilution MIC assays were employed. MIC assays are performed according to CLSI methods except where otherwise noted (CLSI, 2011 and CLSI, 2009). The reference strain S. aureus ATCC 29213 and the hyper-permeable E. coli 901C were used to determine the ability of the PBP compounds to inhibit bacterial growth. Briefly, cryo-preserved bacterial cultures of clinical strains are streaked for isolation on appropriate agar medium, in this case Mueller Hinton II agar. Following incubation to allow formation of colonies these plates are sealed with parafilm and stored refrigerated for up to two weeks. For preparation of assay inocula and to ensure low variability, at least 5 colonies are picked from the agar plates with an inoculating loop and aseptically transferred to a culture tube containing 3 mL of Mueller-Hinton Broth (supplemented with divalent cations to required levels based on Manufacturers' certification). The broth culture is grown for 3-5 hours at 37° C. with shaking at 200 rpm. Meanwhile, 2-fold serial dilutions of test compounds are conducted in a 96 well plate with a final volume of 75 μL per well at 2-fold the final desired concentration. After the dilution plates are set up the growing cultures are then diluted in a cuvette containing MH II broth and the optical density is measured at 600 nm. Inocula are diluted such that 75 μL of this culture in Mueller-Hinton Broth results in a starting bacterial concentration of 5×10^5 CFU/mL when added to the dilution plates. The plates are incubated 16-20 hours at 37° C. The MIC is read visually as the lowest concentration well with no bacterial growth.
(§2) To determine if test compounds were affected by various known β-lactamases, the inhibition of the growth of engineered strains of Escherichia coli harboring select single β-lactamases were tested. […]
A general note: Broth dilution looks for growth in wells or tubes with falling amounts of substance.

Assay [2] concerns E. coli DH5a with pLBII plasmid with no β-lactamase gene. The assay can be described thus: Broth microdilution MIC, engineered E. coli control strain (pLBII plasmid, no β-lactamase gene). The class given is cell-based. The following applies: Escherichia coli, read-out: MIC, β-lactamase None. As for the experimental part:
as §1, §2

Assay [3] has as its system E. coli DH5a harboring VIM-2. The assay is described as follows: Broth microdilution MIC, engineered E. coli expressing VIM-2. The class given is cell-based. The following applies: Escherichia coli, read-out: MIC, β-lactamase VIM. As for the experimental part: as §1, §2
Assay [4] relates to E. coli DH5a harboring OXA-48. The assay is described as follows: Broth microdilution MIC, engineered E. coli expressing OXA-48. It is filed as cell-based. The settings on record: Escherichia coli, read-out: MIC, β-lactamase OXA. As to the method:
as §1, §2

Assay [5] has as its system E. coli DH5a harboring SHV-5. The assay is described as follows: Broth microdilution MIC, engineered E. coli expressing SHV-5. The following applies: Escherichia coli, read-out: MIC, β-lactamase SHV. It is filed as cell-based. As for the experimental part: as §1, §2
The subject of assay [6] is E. coli DH5a harboring NDM-1. The assay can be described thus: Broth microdilution MIC, engineered E. coli expressing NDM-1. The class given is cell-based. The following applies: Escherichia coli, read-out: MIC, β-lactamase NDM. As to the method: as §1, §2
Assay [7] relates to E. coli DH5a harboring CTX-M15. The assay is described as follows: Broth microdilution MIC, engineered E. coli expressing CTX-M15. The class given is cell-based. The following applies: Escherichia coli, read-out: MIC, β-lactamase CTXM. As for the experimental part: as §1, §2
For assay [8], the system named is E. coli DH5a harboring IMP-18. The assay can be described thus: Broth microdilution MIC, engineered E. coli expressing IMP-18. It is filed as cell-based. The following applies: Escherichia coli, read-out: MIC, β-lactamase IMP. As for the experimental part: as §1, §2
For assay [9], the system named is engineered strains of Escherichia coli harboring select single β-lactamases. The assay is described as follows: MIC across the panel of engineered E. coli strains harboring select single β-lactamases. The settings on record: strains expressing β-lactamases compared with control strain, result in words. The class given is cell-based. As to the method: To determine if test compounds were affected by various known β-lactamases, the inhibition of the growth of engineered strains of Escherichia coli harboring select single β-lactamases were tested. These strains were constructed by cloning the gene encoding the particular β-lactamase into the NdeI and BamHI restriction endonuclease sites of plasmid pLBII, placing the gene(s) under the control of the Lac promoter.

The subject of a further assay is E. coli K12 PBP1a/b. The assay is described as follows: Bocillin FL competition binding assay, PBP1a/1b combined. The arrangement: species or system Escherichia coli K12. The settings on record: 15 min pre-incubation, PBP 1a/1b combined. In outline:
(§3)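 E. coli K12 membrane extracts (100 µg protein) pre-incubated 15 min with compound (0.005–2,480 µg/mL) in pH 7 phosphate/350 mM NaCl, then labelled with Bocillin FL 30 min at 35°C; SDS-PAGE fluorescence (ex 450/em 520 nm), μg/mL reported. PBP1a/1b unresolved, reported combined.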

The test system of assay [10] is hyper-permeable E. coli 901C. The assay is described as follows: Broth microdilution MIC assay, hyper-permeable E. coli. It is filed as cell-based. The settings on record: Escherichia coli, read-out: E. coli 901C MIC. In outline:
(§4)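 MIC taken by eye as the lowest compound concentration showing no growth after 16-20 hours at 37° C. Cultures grown 3-5 h in cation-supplemented Mueller-Hinton broth were added to 2-fold compound dilution series at a starting density of 5×10^5 CFU/mL, following CLSI methods.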

Assay [11] concerns E. coli DH5a harboring KPC-2. The assay can be described thus: microbe, parasite or virus in culture. It is filed as cell-based. The following applies: Escherichia coli, read-out: MIC, β-lactamase KPC. As to the method: To determine the ability of test compounds to potentiate the inhibition of the growth of bacterial strains, classic cell based broth microdilution MIC assays were employed. MIC assays are performed according to CLSI methods except where otherwise noted (CLSI, 2011 and CLSI, 2009). The reference strain S. aureus ATCC 29213 and the hyper-permeable E. coli 901C were used to determine the ability of the PBP compounds to inhibit bacterial growth. Briefly, cryo-preserved bacterial cultures of clinical strains are streaked for isolation on appropriate agar medium, in this case Mueller Hinton II agar. Following incubation to allow formation of colonies these plates are sealed with parafilm and stored refrigerated for up to two weeks. For preparation of assay inocula and to ensure low variability, at least 5 colonies are picked from the agar plates with an inoculating loop and aseptically transferred to a culture tube containing 3 mL of Mueller-Hinton Broth (supplemented with divalent cations to required levels based on Manufacturers' certification). The broth culture is grown for 3-5 hours at 37° C. with shaking at 200 rpm. […] After the dilution plates are set up the growing cultures are then diluted in a cuvette containing MH II broth and the optical density is measured at 600 nm. […] The MIC is read visually as the lowest concentration well with no bacterial growth. […]

For another assay, the target named is T1, E. coli PBP2 (Escherichia coli, UniProt P0AD65).
T1 construct: 100 μg's of total membrane protein extracts containing PBPs; endogenous in cells; host or cells: Escherichia coli K12, membrane protein fraction
The assay can be described thus: Bocillin FL competition binding assay, PBP2. Also noted: species or system Escherichia coli K12. The following applies: 15 min pre-incubation. In outline:
as §3

The test system of another assay is S. aureus ATCC 29213. The assay can be described thus: Broth microdilution MIC assay, S. aureus. It is filed as cell-based. The following applies: Staphylococcus aureus, ATCC29213; broth microdilution, 16-20 hours at 37° C.; read-out: S. aureus 29213 MIC. The method in brief:
as §4

In the next assay the target is T2, E. coli PBP3 (Escherichia coli, UniProt P0AD68).
T2 construct: 100 μg's of total membrane protein extracts containing PBPs; endogenous in cells; host or cells: Escherichia coli K12, membrane protein fraction
The assay is described as follows: Bocillin FL competition binding assay, PBP3. The arrangement: species or system Escherichia coli K12. The settings on record: 15 min pre-incubation. In outline: as §3

T1 sequence (P0AD65 whole entry): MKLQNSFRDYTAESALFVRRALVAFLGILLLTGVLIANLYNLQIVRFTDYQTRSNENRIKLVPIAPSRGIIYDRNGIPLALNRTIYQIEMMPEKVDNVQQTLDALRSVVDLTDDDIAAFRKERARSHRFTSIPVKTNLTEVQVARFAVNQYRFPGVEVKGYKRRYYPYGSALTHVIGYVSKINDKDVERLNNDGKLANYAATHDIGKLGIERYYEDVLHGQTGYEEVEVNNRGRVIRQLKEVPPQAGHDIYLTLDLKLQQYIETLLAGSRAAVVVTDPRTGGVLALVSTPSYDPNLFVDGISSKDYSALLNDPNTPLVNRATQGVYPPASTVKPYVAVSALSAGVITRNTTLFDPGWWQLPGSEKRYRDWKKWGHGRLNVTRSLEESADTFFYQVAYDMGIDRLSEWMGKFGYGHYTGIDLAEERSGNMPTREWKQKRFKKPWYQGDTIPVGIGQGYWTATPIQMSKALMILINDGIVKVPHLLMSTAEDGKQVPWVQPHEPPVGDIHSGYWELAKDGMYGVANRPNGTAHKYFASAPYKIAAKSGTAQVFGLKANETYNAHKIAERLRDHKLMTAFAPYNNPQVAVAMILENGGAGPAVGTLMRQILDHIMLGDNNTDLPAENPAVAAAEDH
T2 sequence (P0AD68 1-577): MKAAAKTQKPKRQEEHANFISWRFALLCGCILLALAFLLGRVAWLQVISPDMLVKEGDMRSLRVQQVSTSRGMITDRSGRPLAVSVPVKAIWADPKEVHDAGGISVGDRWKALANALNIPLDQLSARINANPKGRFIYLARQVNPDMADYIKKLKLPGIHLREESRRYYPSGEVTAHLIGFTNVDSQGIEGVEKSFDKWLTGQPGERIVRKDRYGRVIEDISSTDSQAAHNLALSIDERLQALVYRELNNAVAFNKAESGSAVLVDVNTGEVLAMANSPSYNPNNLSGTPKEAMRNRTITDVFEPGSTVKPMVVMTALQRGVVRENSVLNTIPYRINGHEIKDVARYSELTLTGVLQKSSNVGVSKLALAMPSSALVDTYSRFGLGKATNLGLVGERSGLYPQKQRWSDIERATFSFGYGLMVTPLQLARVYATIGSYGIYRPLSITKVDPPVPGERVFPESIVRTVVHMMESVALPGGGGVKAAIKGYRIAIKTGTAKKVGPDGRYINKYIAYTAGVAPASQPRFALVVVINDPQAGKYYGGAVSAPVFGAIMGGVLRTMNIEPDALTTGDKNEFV

In the case of `C[C@H]1[C@H](NC(=O)/C(=N\OC(C)(C)C(=O)O)c2csc(N)n2)C(=O)N1S(=O)(=O)O` [Aztreonam, reference compound], the MIC was determined as 1 µg/mL in assay [1]; 0.06 µg/mL in assay [2]; 0.06 µg/mL in assay [3]; 0.125 µg/mL in [4]; 8 µg/mL in assay [5]; 0.06 µg/mL in assay [6]. The values for the MIC in assay [7] and in [8] were 32 µg/mL and 0.06 µg/mL, respectively. Also, the “Effect of expressed β-lactamase on MIC” value in assay [9] is reported as “weaker MICs in those strains”.
With `CO/N=C(\C(=O)N[C@H]1Cc2cccc(C(=O)O)c2OB1O)c1csc(N)n1` [Example 1, (R,Z)-3-(2-(2-aminothiazol-4-yl)-2-(methoxyimino)acetamido)-2-hydroxy-3,4-dihydro-2H-benzo[e][1,2]oxaborinine-8-carboxylic Acid], the MIC in assay [1] was 8 µg/mL; in assay [2], 8 µg/mL; in assay [3] it was 8 µg/mL; in assay [4], 8 µg/mL; in assay [10], less than 64 µg/mL; in assay [5], 8 µg/mL. For the same molecule, the MIC in assay [11] is 4 µg/mL; with S. aureus ATCC 29213, 64 to 128 µg/mL; in [6], 8 µg/mL; in assay [7], 8 µg/mL; in [8], 8 µg/mL. Further, the “E. coli K12 PBP1a/b Potency” value in the assay with E. coli K12 PBP1a/b was “C (C represents a potency of <64 μg/mL)”. In addition, the “E. coli PBP2 Potency” value at E. coli PBP2 is “A (A represents a potency of >1000 μg/mL)”. Besides, the “Effect of expressed β-lactamase on MIC” value in assay [9] is given as “the same MIC values in strains regardless of the β-lactamase expressed”. Besides, the “E. coli PBP3 Potency” value on E. coli PBP3 was “C (C represents a potency of <64 μg/mL)”.
